Measurements taken from ChEMBL document CHEMBL1201862, “PubChem BioAssay data set” (2004).
One block for each compound: values may come before it. Activity calls are given as the source filed them.

Assays:
[1] = target: T1, Polyadenylate-binding protein 1 (Homo sapiens, UniProt P11940); experiment: MLLE domain peptide-binding blockers, IC50 – biochemical, fluorescence polarization, FITC-PAM2 peptide, dose response (AID 602259); format: functional; details: read-out: IC50_Mean
[2] = target: Protein Rev (Human immunodeficiency virus type 1 group M subtype B (isolate HXB2)(HIV-1), UniProt P04618); experiment: blockers of HIV Rev/RRE RNA complex – biochemical, fluorescence polarization, HIV-1, dose response (AID 434976); parameters: species or system Human immunodeficiency virus 1
[3] = target: T1, Polyadenylate-binding protein 1; experiment: MLLE binding blockers, Cy5 peptide tracer – biochemical, fluorescence polarization, Cy5-PAM2 peptide, secondary, miRNA deadenylation inhibitor project, dose response (AID 602260); format: functional; details: read-out: IC50_Mean
[4] = target: Female germline-specific tumor suppressor gld-1 (Caenorhabditis elegans, UniProt Q17339); experiment: blockers of GLD-1/TGE RNA complex formation – biochemical, fluorescence polarization, C. elegans, dose response (AID 2802);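 note: fluorescence polarization of labeled TGE RNA bound by purified gld-1 protein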
[5] = Counterscreen for IDE inhibitors: Luminescence-based cell-based high throughput dose response assay to identify compounds that are cytotoxic to HEK cells. [Related pubchem assays: 434962 (Primary screen (IDE inhibitors in singlicate)), 449730 (Counterscreen (Cytotoxicity in triplicate)), 435028 (Confirmation (IDE inhibitors in triplicate)) …; format: functional; details: HEK293
[6] = target: T2, Insulin-degrading enzyme (Homo sapiens, UniProt P14735); experiment: Dose Response: Fluorescence polarization-based cell-based high throughput dose response assay for inhibitors of insulin-degrading enzyme (IDE). [Related pubchem assays: 434962 (Primary screen (IDE inhibitors in singlicate)), 449730 (Counterscreen (Cytotoxicity in triplicate)), 435028 (Confirmation (IDE inhibitors in triplicate)), 434984 (Summary …; format: functional
T2 sequence (P14735 whole entry): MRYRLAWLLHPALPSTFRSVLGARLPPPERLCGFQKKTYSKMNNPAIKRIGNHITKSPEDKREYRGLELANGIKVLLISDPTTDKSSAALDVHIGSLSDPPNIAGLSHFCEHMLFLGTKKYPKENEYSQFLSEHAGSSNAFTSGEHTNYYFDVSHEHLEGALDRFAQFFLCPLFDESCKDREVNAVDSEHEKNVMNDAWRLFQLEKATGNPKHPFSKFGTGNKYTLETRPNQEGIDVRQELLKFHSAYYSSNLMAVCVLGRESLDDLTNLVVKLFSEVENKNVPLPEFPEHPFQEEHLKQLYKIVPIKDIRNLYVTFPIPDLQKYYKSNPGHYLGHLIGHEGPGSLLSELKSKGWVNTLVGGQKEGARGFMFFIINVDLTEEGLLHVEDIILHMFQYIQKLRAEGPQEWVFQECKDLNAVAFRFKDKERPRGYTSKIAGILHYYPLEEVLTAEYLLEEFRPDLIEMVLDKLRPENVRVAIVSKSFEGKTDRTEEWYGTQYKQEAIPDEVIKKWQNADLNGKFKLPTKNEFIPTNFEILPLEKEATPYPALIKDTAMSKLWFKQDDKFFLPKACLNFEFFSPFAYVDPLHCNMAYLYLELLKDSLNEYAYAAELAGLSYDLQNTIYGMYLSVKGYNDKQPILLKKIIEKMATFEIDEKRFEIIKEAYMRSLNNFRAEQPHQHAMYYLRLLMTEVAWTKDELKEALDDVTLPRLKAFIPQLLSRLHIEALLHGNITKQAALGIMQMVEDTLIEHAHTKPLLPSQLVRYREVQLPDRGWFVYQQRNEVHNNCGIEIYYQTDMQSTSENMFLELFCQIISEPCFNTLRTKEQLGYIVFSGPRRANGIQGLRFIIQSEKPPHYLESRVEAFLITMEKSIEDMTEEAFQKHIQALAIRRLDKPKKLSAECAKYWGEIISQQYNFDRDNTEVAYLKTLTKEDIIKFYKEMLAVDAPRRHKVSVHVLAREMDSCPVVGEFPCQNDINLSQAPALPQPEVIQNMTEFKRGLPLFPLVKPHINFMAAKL

[7] = target: Bcl-2-like protein 10 (Homo sapiens, UniProt Q9HD36); experiment: Bcl-B/TR3 peptide binding disruption – biochemical, fluorescence polarization, FITC-TR3 peptide, selectivity assay for Bfl-1 inhibitor project, primary screen (AID 748);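 note: fluorescence polarization from a fluorescein-labelled TR3 peptide binding purified Bcl-B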
[8] = target: Melanin-concentrating hormone receptor 1 (Homo sapiens, UniProt Q99705); experiment: Fluorescence-based counterscreen for antagonists of the G-protein coupled receptor 7 (GPR7): cell-based high throughput dose response assay to identify antagonists of the melanin-concentrating hormone receptor 1 (MCHR1).; format: functional
[9] = target: T3, Eukaryotic translation initiation factor 2-alpha kinase 3 (Homo sapiens, UniProt Q9NZJ5); experiment: Counterscreen assay for PERK inhibitors: Dose response cell-based high throughput screening assay to measure inhibition of PERK at 6 hours. [Related pubchem assays: 1522, 1416 ]; format: functional
[10] = target: T3, Eukaryotic translation initiation factor 2-alpha kinase 3; experiment: Dose response cell-based high-throughput screening assay to measure PERK inhibition. [Related pubchem assays: 1416 ]; format: functional

T1 sequence (P11940 whole entry, the tested form may be a part): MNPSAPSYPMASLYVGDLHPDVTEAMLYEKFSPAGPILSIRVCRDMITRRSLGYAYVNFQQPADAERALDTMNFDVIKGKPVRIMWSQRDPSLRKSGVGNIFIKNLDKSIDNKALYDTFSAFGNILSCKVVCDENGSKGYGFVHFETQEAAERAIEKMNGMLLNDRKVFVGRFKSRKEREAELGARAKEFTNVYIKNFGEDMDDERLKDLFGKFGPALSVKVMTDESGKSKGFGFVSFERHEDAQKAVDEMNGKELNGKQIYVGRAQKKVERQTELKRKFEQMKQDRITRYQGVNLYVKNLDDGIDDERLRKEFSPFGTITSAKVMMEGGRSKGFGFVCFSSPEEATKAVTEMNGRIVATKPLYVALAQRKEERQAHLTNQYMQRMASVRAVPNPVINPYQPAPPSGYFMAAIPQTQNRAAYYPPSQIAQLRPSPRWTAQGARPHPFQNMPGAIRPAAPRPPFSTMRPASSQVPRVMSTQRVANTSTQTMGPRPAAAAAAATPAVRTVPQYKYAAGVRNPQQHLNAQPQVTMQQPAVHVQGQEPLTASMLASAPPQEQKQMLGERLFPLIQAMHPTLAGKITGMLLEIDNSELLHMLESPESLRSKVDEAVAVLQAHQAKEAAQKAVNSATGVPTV
T3 sequence (Q9NZJ5 whole entry): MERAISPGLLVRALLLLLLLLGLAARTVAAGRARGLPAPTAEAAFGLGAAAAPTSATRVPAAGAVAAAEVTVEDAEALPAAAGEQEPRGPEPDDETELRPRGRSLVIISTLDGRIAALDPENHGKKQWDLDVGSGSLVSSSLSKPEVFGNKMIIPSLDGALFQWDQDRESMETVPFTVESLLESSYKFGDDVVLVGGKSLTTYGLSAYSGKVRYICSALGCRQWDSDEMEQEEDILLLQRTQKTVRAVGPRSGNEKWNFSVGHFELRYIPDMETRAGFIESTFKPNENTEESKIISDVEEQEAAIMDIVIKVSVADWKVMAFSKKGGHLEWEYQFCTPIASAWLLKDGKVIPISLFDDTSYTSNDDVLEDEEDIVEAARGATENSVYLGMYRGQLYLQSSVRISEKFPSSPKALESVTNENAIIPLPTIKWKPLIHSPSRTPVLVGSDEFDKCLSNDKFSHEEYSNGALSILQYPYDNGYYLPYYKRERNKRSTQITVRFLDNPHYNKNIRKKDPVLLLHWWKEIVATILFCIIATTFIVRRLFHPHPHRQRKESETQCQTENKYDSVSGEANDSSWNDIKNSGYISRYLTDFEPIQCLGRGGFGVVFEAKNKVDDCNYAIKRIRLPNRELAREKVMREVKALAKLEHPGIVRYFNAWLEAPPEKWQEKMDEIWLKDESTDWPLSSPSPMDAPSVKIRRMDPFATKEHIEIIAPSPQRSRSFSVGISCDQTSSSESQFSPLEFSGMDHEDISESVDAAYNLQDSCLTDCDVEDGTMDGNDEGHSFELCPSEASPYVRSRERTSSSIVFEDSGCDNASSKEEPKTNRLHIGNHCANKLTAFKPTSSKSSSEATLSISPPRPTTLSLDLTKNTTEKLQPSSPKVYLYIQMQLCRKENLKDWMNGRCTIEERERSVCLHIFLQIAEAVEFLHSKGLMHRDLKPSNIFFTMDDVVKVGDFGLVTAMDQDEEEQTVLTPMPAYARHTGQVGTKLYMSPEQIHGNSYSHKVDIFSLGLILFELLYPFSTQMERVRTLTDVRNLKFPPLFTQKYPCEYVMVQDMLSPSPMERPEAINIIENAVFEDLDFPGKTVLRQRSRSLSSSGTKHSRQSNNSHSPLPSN
Sequence of Melanin-concentrating hormone receptor 1 (Q99705 whole entry): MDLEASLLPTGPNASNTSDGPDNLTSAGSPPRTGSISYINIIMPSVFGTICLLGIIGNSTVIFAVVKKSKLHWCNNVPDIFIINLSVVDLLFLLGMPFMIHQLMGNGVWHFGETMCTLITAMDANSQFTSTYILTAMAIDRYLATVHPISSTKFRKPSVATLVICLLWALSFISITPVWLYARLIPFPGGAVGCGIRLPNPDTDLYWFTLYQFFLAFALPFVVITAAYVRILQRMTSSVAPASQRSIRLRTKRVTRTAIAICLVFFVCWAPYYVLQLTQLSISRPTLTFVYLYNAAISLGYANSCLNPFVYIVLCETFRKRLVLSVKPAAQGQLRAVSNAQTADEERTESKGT
Sequence of Protein Rev (P04618 whole entry): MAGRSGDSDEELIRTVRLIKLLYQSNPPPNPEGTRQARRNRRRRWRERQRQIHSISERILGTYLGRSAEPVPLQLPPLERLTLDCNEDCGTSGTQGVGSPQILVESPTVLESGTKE
Sequence of Female germline-specific tumor suppressor gld-1 (Q17339 whole entry): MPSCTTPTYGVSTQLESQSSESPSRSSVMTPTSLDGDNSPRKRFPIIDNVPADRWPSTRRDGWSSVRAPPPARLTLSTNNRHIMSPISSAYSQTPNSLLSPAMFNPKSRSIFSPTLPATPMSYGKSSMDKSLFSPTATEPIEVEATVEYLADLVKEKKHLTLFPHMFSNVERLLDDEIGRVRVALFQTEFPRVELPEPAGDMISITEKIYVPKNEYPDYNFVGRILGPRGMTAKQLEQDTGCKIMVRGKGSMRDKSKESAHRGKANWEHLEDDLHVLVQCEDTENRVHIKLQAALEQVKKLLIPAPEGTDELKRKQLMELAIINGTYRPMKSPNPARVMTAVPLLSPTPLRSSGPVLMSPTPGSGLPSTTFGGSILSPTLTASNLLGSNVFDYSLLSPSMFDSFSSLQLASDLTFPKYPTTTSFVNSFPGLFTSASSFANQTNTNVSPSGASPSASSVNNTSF
Sequence of Bcl-2-like protein 10 (Q9HD36 whole entry): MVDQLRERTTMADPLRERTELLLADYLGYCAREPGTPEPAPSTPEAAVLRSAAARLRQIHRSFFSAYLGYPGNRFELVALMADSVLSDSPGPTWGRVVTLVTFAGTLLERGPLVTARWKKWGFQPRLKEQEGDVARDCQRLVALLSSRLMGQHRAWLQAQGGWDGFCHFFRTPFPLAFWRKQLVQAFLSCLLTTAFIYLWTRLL

Structure (SMILES): Nc1nnnn1/N=C/c1cc(Cl)ccc1O
IC50 [1]: 38.8 µM (inactive) | IC50 [2]: > 75.3 µM (not active) | IC50 [3]: 35.1 µM (inactive) | IC50 [4]: 6.2 µM (active)

Structure (SMILES): COc1cccc(NC(=O)COC(=O)/C=C/c2c(C)nn(-c3ccccc3)c2C)c1
IC50 [5]: > 55.7 µM (not active) | IC50 [6]: 8.29 µM (active)

IC50 [7]: 70.4 µM (inactive)
Structure (SMILES): O=C(C[n+]1ccc(C(=O)NN=Cc2ccc(O)cc2)cc1)c1ccccc1

IC50 [8]: 11.2 µM (not active)
Structure (SMILES): CCN(CC)CCNC(=O)CCc1c(C)nc2c(c(C)nn2-c2ccc(C)cc2)c1C

EC50 [9]: > 55.7 µM (not active) | EC50 [10]: > 55.7 µM (not active)
Structure (SMILES): Cn1c(=O)c2c(SCc3ccccc3)nc(-c3ccco3)nc2n(C)c1=O
